Assay results taken from patent US20230382923A1, “FUSED TETRACYCLIC QUINAZOLINE DERIVATIVES AS INHIBITORS OF ERBB2” (EnLiven Therapeutics, Inc., priority 2021, published 2023).
Read-outs that look alike come from different tables or passages of the source.

Assays:
[1] = test system: Ba/F3 ERBB2 YVMA; experiment: Cell viability assay (CellTiter Glo, 72 hours); type: cell-based, mouse
Method: Cells were treated with compounds, and cell viability was measured as a metric of kinase inhibition.
BT-474, A431, MDA-MB-175VII, NCI-H1781, MCF7, and Ba/F3 cell lines were tested. The Ba/F3 cell line is IL-3-dependent mouse cell line derived from the C3H mouse strain. Ba/F3 cell lines were engineered to express human ERBB2 or EGFR kinases, rendering the cells IL-3 independent. The lines were generated via retroviral transduction utilizing a Moloney murine leukemia virus (MMLV) promoter, and constructs are stably integrated into the cell genome. The sequences of the ERBB2 and EGFR genes used were NCBI Reference Sequences NM_004448.3 and NM_005228.3, respectively.
BT-474, A431, MDA-MB-175VII, NCI-H1781 and MCF7 cells were grown in the appropriate growth medium as described in Table B2 below, and harvested at 50-80% confluence. BT-474, A431, MDA-MB-175VII, NCI-H1781 and MCF7 cells were counted and seeded at 2,000 or 1,500 cells per well in 384-well tissue culture plates (see Table B2). Similarly, Ba/F3 cell lines engineered to express EGFR, ERBB2, or ERBB2 mutants were grown, harvested, counted and seeded at 3000 cells per well in 96-well plates. A subset of wells contained media only (low control, “LC”).
Table B1 provides the growth media and number of cells seeded per well for the each cell line.
Compounds were dissolved in DMSO and serially diluted. Serially-diluted compound or a DMSO only control (high control, “HC”) was added to the plated cells in each well. Compounds were tested at concentrations of about 10 μM to 0.51 nM, using three-fold dilutions. The final proportion of DMSO never exceeded 0.1%.
Plates were placed in a 37° C., 5% CO2 incubator for 72 hours. Plates were then removed from the incubator and equilibrated for 15 minutes at room temperature. 40 μl of CellTiter Glo reagent (Promega) was added to measure the relative level of metabolically active cells by quantifying intracellular ATP concentrations. Plates were incubated for 30 minutes at room temperature, and luminescence was measured. Percent viability was normalized to a vehicle control only using the following formula: % viability=100×(LumSample−LumLC)/(LumHC−LumLC). Graphical curves were fitted using a nonlinear regression model with a sigmoidal dose response.

[2] = molecular target: phosphorylated EGFR (pEGFR) (Homo sapiens (Human), UniProt P00533); experiment: Detection of phosphorylated EGFR (pEGFR) by AlphaLISA in A431 cells; type: cell-based; settings: A431 cells (10% FBS), 4 hours incubation, EGF 30 ng/mL for 10 minutes
Summary of the method: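 A431 cells in 10% FBS exposed to compound for 4 h at 37 °C, then stimulated 10 min with 30 ng/mL EGF. Lysates assayed for phospho-EGFR by AlphaLISA. % inhibition relative to DMSO and staurosporine controls; IC50 from four-parameter curve fit.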

[3] = molecular target: phosphorylated ERBB2 (pERBB2) (Homo sapiens (Human), UniProt P04626); experiment: Detection of phosphorylated ERBB2 (pERBB2) by ELISA in BT-474 cells; type: cell-based; settings: four hours incubation with compound
Summary of the method: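 BT-474 cells were exposed to serially diluted compounds for 4 h at 37 °C, then lysed. Phospho-ERBB2 in lysates was captured by ELISA and detected with an HRP anti-phosphotyrosine antibody and TMB.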

[4] = Ba/F3 cells engineered to express human ERBB2 YVMA mutant, 72 hours, CellTiter Glo viability, read-out: Ba/F3 ERBB2 YVMA, IC50
[5] = Mus musculus, BaF3, 72 h, read-out: Ba/F3 ERBB2 YVMA, IC50, nM
[6] = Mus musculus, BaF3, 72 h, Ba/F3 cells engineered to express human ERBB2 YVMA mutant, 72 hours, CellTiter Glo viability, read-out: Ba/F3 ERBB2 YVMA, IC50

Sequence of phosphorylated ERBB2 (pERBB2) (P04626 23-1255): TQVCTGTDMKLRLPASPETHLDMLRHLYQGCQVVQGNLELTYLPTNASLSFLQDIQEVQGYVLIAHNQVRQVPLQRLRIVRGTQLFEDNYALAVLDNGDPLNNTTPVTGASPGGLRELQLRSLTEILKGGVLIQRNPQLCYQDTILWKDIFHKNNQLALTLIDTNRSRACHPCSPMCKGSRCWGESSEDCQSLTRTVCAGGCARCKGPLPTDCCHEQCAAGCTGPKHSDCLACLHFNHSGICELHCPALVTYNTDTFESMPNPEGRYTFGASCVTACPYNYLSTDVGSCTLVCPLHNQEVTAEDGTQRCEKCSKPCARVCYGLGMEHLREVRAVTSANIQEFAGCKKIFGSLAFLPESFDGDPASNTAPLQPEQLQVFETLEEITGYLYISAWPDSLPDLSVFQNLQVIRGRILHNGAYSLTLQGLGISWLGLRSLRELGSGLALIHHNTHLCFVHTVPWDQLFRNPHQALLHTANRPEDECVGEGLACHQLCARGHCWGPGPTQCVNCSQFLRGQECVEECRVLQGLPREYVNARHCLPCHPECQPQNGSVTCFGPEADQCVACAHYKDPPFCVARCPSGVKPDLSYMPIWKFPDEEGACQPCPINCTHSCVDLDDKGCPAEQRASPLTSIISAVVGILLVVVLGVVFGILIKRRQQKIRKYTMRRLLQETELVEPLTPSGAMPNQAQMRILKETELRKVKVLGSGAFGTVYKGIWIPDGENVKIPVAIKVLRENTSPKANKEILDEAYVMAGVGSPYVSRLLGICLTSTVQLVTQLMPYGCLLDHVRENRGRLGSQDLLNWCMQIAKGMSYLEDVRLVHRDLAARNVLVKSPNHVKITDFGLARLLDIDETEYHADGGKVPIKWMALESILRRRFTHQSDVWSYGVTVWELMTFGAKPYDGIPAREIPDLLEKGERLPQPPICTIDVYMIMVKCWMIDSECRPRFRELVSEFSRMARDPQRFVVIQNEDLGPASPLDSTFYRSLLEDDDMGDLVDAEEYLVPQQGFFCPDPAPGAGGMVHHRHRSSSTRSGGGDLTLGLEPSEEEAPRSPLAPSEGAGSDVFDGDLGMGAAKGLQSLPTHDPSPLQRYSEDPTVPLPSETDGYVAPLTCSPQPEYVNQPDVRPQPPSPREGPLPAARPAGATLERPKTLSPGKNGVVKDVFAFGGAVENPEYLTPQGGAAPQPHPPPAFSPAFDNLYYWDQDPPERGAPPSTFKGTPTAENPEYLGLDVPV
Sequence of phosphorylated EGFR (pEGFR) (P00533 25-1210): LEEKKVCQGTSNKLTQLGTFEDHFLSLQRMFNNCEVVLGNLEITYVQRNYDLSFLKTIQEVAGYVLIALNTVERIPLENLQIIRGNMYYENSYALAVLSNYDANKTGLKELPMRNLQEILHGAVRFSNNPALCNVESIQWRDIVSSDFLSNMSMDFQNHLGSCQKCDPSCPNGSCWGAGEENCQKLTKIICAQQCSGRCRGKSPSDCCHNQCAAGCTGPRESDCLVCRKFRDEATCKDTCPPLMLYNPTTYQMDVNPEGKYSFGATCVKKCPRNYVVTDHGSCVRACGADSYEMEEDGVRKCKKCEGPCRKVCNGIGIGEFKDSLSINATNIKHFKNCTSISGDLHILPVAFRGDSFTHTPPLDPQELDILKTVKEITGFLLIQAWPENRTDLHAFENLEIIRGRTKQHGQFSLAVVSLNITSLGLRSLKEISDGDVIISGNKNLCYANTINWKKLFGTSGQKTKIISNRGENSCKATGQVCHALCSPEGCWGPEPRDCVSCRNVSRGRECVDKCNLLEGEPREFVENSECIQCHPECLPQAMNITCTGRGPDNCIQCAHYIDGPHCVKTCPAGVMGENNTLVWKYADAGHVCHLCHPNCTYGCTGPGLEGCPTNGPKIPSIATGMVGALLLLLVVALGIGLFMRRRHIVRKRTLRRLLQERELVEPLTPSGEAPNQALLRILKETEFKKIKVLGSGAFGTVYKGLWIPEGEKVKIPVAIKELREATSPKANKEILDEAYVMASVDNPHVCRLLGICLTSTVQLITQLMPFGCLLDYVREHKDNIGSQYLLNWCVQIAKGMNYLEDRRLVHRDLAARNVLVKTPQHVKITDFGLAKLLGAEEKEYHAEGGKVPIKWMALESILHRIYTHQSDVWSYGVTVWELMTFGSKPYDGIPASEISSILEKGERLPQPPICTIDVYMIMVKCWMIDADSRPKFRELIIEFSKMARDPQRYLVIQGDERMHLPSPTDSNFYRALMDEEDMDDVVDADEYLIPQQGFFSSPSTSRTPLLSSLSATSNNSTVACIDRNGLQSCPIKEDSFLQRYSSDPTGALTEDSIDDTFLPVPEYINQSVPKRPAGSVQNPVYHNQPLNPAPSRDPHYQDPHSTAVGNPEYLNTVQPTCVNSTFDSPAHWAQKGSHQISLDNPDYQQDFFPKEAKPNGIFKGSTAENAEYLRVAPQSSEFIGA

IC50 [1, 4] [nM]	IC50 [1, 6] [nM]	Compound	IC50 [2] [nM]	IC50 [3] [nM]	IC50 [1, 5] [nM]
5.88		Cc1cc(Nc2ncnc3cc4c(nc23)N2CCCN(C(=O)/C=C/CN(C)C)C(CO4)C2)ccc1Oc1ccn2ncnc2c1 (single isomer, unassigned) [Example S55, Enantiomer 1, (E)-1-(4-((4-([1,2,4]triazolo[1,5-a]pyridin-7-yloxy)-3-methylphenyl)amino)-8,9,11,12-tetrahydro-6,11-methanopyrimido[4′,5′:5,6]pyrido[3,2-b][1,4,8]oxadiazecin-10 (7H)-yl)-4-(dimethylamino)but-2-en-1-one Enantiomer 1]	> 10000		
> 500		Cc1cc(Nc2ncnc3cc4c(nc23)N2CCCN(C(=O)/C=C/CN(C)C)C(CO4)C2)ccc1Oc1ccn2ncnc2c1 (single isomer, unassigned) [Example S55, Enantiomer 2, (E)-1-(4-((4-([1,2,4]triazolo[1,5-a]pyridin-7-yloxy)-3-methylphenyl)amino)-8,9,11,12-tetrahydro-6,11-methanopyrimido[4′,5′:5,6]pyrido[3,2-b][1,4,8]oxadiazecin-10 (7H)-yl)-4-(dimethylamino)but-2-en-1-one Enantiomer 2]	> 10000		
		C=CC(=O)N1CCN2CC1COc1cc3ncnc(Nc4ccc(Oc5ccn6ncnc6c5)c(C)c4)c3nc12 (stereo in doubt) [Compound 1, 1-((10S)-4-((4-([1,2,4]triazolo[1,5-a]pyridin-7-yloxy)-3-methylphenyl)amino)-7,8,10,11-tetrahydro-9H-6,10-methanopyrimido[4′,5′:5,6]pyrido[3,2-b][1,4,7]oxadiazonin-9-yl)prop-2-en-1-one]	450	9.77	7.77
		C=CC(=O)N1CCN2CC1COc1cc3ncnc(Nc4ccc(Oc5ccn6ncnc6c5)c(C)c4)c3nc12 (stereo in doubt) [Compound 2, 1-((10R)-4-((4-([1,2,4]triazolo[1,5-a]pyridin-7-yloxy)-3-methylphenyl)amino)-7,8,10,11-tetrahydro-9H-6,10-methanopyrimido[4′,5′:5,6]pyrido[3,2-b][1,4,7]oxadiazonin-9-yl)prop-2-en-1-one]	> 10000	422	116
		C=CC(=O)N1CCN2CC1COc1cc3ncnc(Nc4ccc(Oc5ccc6c(c5)ncn6C)c(C)c4)c3cc12 (stereo in doubt) [Compound 3, 1-((10S)-4-((3-methyl-4-((1-methyl-1H-benzo[d]imidazol-5-yl)oxy)phenyl)amino)-7,8,10,11-tetrahydro-9H-6,10-methano[1,4,7]oxadiazonino[3,2-g]quinazolin-9-yl)prop-2-en-1-one]	1470	28.3	18
		C=CC(=O)N1CCN2CC1COc1cc3ncnc(Nc4ccc(Oc5ccn6ncnc6c5)c(C)c4)c3cc12 (stereo in doubt) [Compound 4, 1-((10S)-4-((4-([1,2,4]triazolo[1,5-a]pyridin-7-yloxy)-3-methylphenyl)amino)-7,8,10,11-tetrahydro-9H-6,10-methano[1,4,7]oxadiazonino[3,2-g]quinazolin-9-yl)prop-2-en-1-one]	1860	7.36	8.63
		C=CC(=O)N1CCN2CC1COc1cc3ncnc(Nc4ccc(Oc5ccn6ncnc6c5)c(C)c4)c3cc12 (stereo in doubt) [Compound 5, 1-((10R)-4-((4-([1,2,4]triazolo[1,5-a]pyridin-7-yloxy)-3-methylphenyl)amino)-7,8,10,11-tetrahydro-9H-6,10-methano[1,4,7]oxadiazonino[3,2-g]quinazolin-9-yl)prop-2-en-1-one]	> 10000	1200	304
	> 500	Cc1cc(Nc2ncnc3cc4c(cc23)N2CCN(C(=O)/C=C/CN(C)C)C(CO4)C2)ccc1Oc1ccn2ncnc2c1 (stereo in doubt) [Compound 8, (E)-1-((10R)-4-((4-([1,2,4]triazolo[1,5-a]pyridin-7-yloxy)-3-methylphenyl)amino)-7,8,10,11-tetrahydro-9H-6,10-methano[1,4,7]oxadiazonino[3,2-g]quinazolin-9-yl)-4-(dimethylamino)but-2-en-1-one]	> 10000	547	
		C=CC(=O)N1CCN2CC1COc1cc3ncnc(Nc4ccc(Oc5ccc6c(c5)ncn6C)c(C)c4)c3nc12 (stereo in doubt) [Compound 14, 1-((10S)-4-((3-methyl-4-((1-methyl-1H-benzo[d]imidazol-5-yl)oxy)phenyl)amino)-7,8,10,11-tetrahydro-9H-6,10-methanopyrimido[4′,5′:5,6]pyrido[3,2-b][1,4,7]oxadiazonin-9-yl)prop-2-en-1-one]	532	43.8	21.6
	> 500	CC#CC(=O)N1CCN2CC1COc1cc3ncnc(Nc4ccc(Oc5ccn6ncnc6c5)c(C)c4)c3cc12 (stereo in doubt) [Compound 17, 1-((10R)-4-((4-([1,2,4]triazolo[1,5-a]pyridin-7-yloxy)-3-methylphenyl)amino)-7,8,10,11-tetrahydro-9H-6,10-methano[1,4,7]oxadiazonino[3,2-g]quinazolin-9-yl)but-2-yn-1-one]	> 10000	1050	
		C=CC(=O)N1CCN2CC1COc1cc3ncnc(Nc4ccc(Oc5ccc(C)nc5)c(C)c4)c3nc12 (stereo in doubt) [Compound 20, 1-((10S)-4-((3-methyl-4-((6-methylpyridin-3-yl)oxy)phenyl)amino)-7,8,10,11-tetrahydro-9H-6,10-methanopyrimido[4′,5′:5,6]pyrido[3,2-b][1,4,7]oxadiazonin-9-yl)prop-2-en-1-one]	192	21.1	5.28
		C=CC(=O)N1CCN2CC1COc1cc3ncnc(Nc4ccc(Oc5ccc(CC)nc5)c(C)c4)c3nc12 (stereo in doubt) [Compound 22, 1-((10S)-4-((4-((6-ethylpyridin-3-yl)oxy)-3-methylphenyl)amino)-7,8,10,11-tetrahydro-9H-6,10-methanopyrimido[4′,5′:5,6]pyrido[3,2-b][1,4,7]oxadiazonin-9-yl)prop-2-en-1-one]	684	70	56.1
		CN(C)C/C=C/C(=O)N1CCN2C[C@H]1COc1cc3ncnc(Nc4cc(F)c(Oc5ccn6ncnc6c5)cc4F)c3nc12 [Compound 48, (E)-1-((10S)-4-((4-([1,2,4]triazolo[1,5-a]pyridin-7-yloxy)-2,5-difluorophenyl)amino)-7,8,10,11-tetrahydro-9H-6,10-methanopyrimido[4′,5′:5,6]pyrido[3,2-b][1,4,7]oxadiazonin-9-yl)-4-(dimethylamino)but-2-en-1-one]	3300	10.8	
		Cc1cc(Nc2ncnc3cc4c(nc23)N2CCN(C(=O)/C=C/CN(C)C)C(CCO4)C2)ccc1Oc1ccn2ncnc2c1 (stereo not shown) [Compound 52, (E)-1-(4-((4-([1,2,4]triazolo[1,5-a]pyridin-7-yloxy)-3-methylphenyl)amino)-7,8,11,12-tetrahydro-6,10-methanopyrimido[4′,5′:5,6]pyrido[3,2-b][1,4,7]oxadiazecin-9 (10H)-yl)-4-(dimethylamino)but-2-en-1-one]	> 10000	635	
		Cc1cc(Nc2ncnc3cc4c(nc23)N2CCN(C(=O)/C=C/CN(C)C)CC(CO4)C2)ccc1Oc1ccn2ncnc2c1 (stereo not shown) [Compound 57, (E)-1-(4-((4-([1,2,4]triazolo[1,5-a]pyridin-7-yloxy)-3-methylphenyl)amino)-7,8,11,12-tetrahydro-6,11-methanopyrimido[4,5′:5,6]pyrido[3,2-b][1,4,7]oxadiazecin-9 (10H)-yl)-4-(dimethylamino)but-2-en-1-one]	> 10000	32.8	
